Reference: patent US20020094958A1, “Materials for lysosome modulation and methods of use thereof” (priority 2000, published 2002)
Where a SMILES comes first, the peptide text is derived from it. The star is where a group is joined. Cbz = O=C(OCc1ccccc1)*; CHN2 = [N-]=[N+]=C*

Columns and labels:
[1] = test system: lysosomal enzyme levels; test: Upmodulation of lysosomal enzyme levels in hippocampal slice cultures (Table 1); format: cell-based, rat; conditions: compounds individually applied to hippocampal slice cultures
From the text: Another aspect of the invention is the provision of compounds to increase cellular content (upmodulation) of lysosomal enzymes. As used herein “upmodulation” is an increase in the cellular content of lysosomal enzymes or in the content of lysosomes. Some inventive lysosomal modulating compounds are comprised by the previously described formulas (1) M-aan—CH═N═N, (2) M-aan—CH2—O—CO—[2-R-4-R-6-R-Phenyl], (3) M-aan—NH—CH2—CH N—NH—CO—NH2 and (4) M—N═N—CO—CH2-aan—O—R. Examples of compounds include, formula (1) benzyloxycarbonyl-Phe-Ala-diazomethylketone and benzyloxycarbonyl-Phe-Phe-diazomethylketone; formula (2) is benzyloxycarbonyl-Phe-Lys-2,4,6-trimethylbenzoyloxymethylketone; formula (3) is H-Gly-Phe-Gly-aldehyde semicarbazone; formula (4) is diazoacetyl-DL-2-aminohexanoic acid-methyl ester. When these compounds were individually applied to hippocampal slice cultures, each facilitated the upmodulation of lysosomal enzyme levels (Table 1). Each of the compounds is available from BACHEM Biosciences Inc. of King of Prussia, Pa. Presently, PADK is the preferred compound for modulation of lysosomal activity.
Lysosomal modulating compounds were identified that unexpectedly stimulate lysosomal activity and/or cellular feedback processes for the upregulation of lysosomal hydrolase levels. […] Thus the inventive lysosomal modulation promotes efficient tau turnover/processing and thereby reduces the ability of abnormally phosphorylated tau to drive non-pathogenic species off of microtubules and into the aggregated state. The non-pathogenic tau molecules would then be more readily available to stabilize microtubules and their transport mechanisms that are important for neuronal functions.

[2] = test system: hippocampal slice cultures; test: Synaptic marker decline and recovery after chloroquine-induced lysosomal dysfunction in hippocampal slice cultures; format: cell-based, rat; conditions: for recovery of the postsynaptic marker GluR1 concentration / recovery of the presynaptic marker synaptophysin concentration: 2-day recovery after 6-day 60 μM chloroquine, vs chloroquine baseline
Description: The method comprises treatment of a neural tissue culture with a lysosomal disruptor (e.g., chloroquine) to initiate lysosome dysfunction in the culture. The culture is treated with a lysosomal disruptor in order to reproduce features characteristic of neurodegeneration, especially those found in Alzheimer's disease (FIG. 7). Preferably, chloroquine is utilized for the lysosomal disruptor due to its broad targeting of pH-dependent enzymes by disrupting the proton gradient of lysosomes. Chloroquine is added to the culture for an extended period of time (the addition time period) to cause gradual cellular changes.
After a predetermined time, the lysosomal disrupter is removed from the culture and synaptic marker concentrations are determined. Subsequently, small amounts of compounds are administered to the neural tissue to modulate lysosomal enzymes. After such treatment, concentrations of synaptic markers in the neural tissue are determined, and the treated and untreated synaptic marker concentrations are compared to determine synaptic recovery (see FIG. 2). Thus by monitoring decline (during disruptor addition) and subsequent increase (during compound addition) of synaptic markers, synaptic degeneration and recovery can be assessed, and the efficacy of the added compounds can be measured.
In order to induce lysosomal dysfunction, 60 μM chloroquine in media was added separately to groups of hippocampal slice cultures. The chloroquine-containing media was changed every two days. Over a 6-day period, separate groups of slices were harvested and synaptic pathology assessed by determining the content of the postsynaptic marker GluR1. […] In a first set of slices the chloroquine was removed from the feeding media after the 6-day addition period and synaptic recovery was assessed after one and two days by measuring GluR1 concentration. […] Although the rate of decline slowed between the first and second day, there was no evidence of synaptic recovery.
In a second set of slices, synaptic recovery was assessed after removal of chloroquine-containing media and a single addition of 10 μM of the lysosomal modulator benzyloxycarbonyl-Phe-Ala-diazomethyiketone (PADK) in media was applied to cultures. As shown by the closed triangles, addition of PADK functioned to increase the GluR1 marker concentration, indicating recovery from synaptic degeneration.
Lysosomal dysfunction was induced by adding 60 μM chloroquine in media to separate groups of hippocampal slice cultures. The chloroquine-containing media was changed every two days for a total of six days. After the 6-day addition period, the chloroquine was removed from the feeding media of individual sets of cultures and presynaptic marker (synaptophysin) and postsynaptic marker (GluR1) concentrations assessed to provide a baseline indicated by the horizontal dotted lines in FIGS. 3A and 3B. 10 μM PADK, 10 μM Ampakine (trademark of Cortex Pharmaceuticals; Irvine, Calif.), and 10 μM memantine (derivatives of which are a trademark of Merz Pharmaceuticals; Germany) were added separately to separate chloroquine-treated cultures to assess their effects on synaptic recovery. After a 2-day recovery period, the separate groups of cultures were harvested and concentrations of presynaptic (synaptophysin) and postsynaptic (GluR1) markers were measured and compared to the reduced levels resulting from the 6-day chloroquine treatment. An increase from the baseline indicates recovery while no difference or further reduction of marker concentrations from the baseline indicates no recovery of synaptic maintenance.

[3] = test system: hippocampal slice cultures; test: Immunoblot of tau species and lysosomal enzymes after chloroquine-mediated lysosomal dysfunction in hippocampal slice cultures; format: cell-based, rat
From the text: Lysosomal dysfunction was produced in hippocampal slice cultures with chloroquine as in Example 2.

[4] = test system: hippocampal slice cultures; test: Horse-radish peroxidase dendritic transport scoring in hippocampal slice cultures; format: cell-based, rat
Description: Lysosomal dysfunction was produced in hippocampal slice cultures with chloroquine as in Example 2. Separate groups of slices were assessed for transport capability by applying horse-radish peroxidase to neurons and scoring its transport from cell bodies along dendrites by two independent observers. […] By monitoring intracellular tau deposition, microtubule stabilization marker (acetylated tubulin), and transport capability, it appears that changes in all of these related parameters contribute to the link between lysosomal modulation and synapse maintenance (FIG. 7).

[5] = test system: hippocampal slice cultures; test: Continuous PADK application to hippocampal slice cultures over a 20-day period; format: cell-based, rat
From the text: One aspect of the invention is the use of compounds to modulate lysosomal activity. The modulation of lysosomal activity may be, but is not necessarily, accompanied by an increase in cellular content of lysosomes or lysosomal enzymes. Some inventive lysosomal modulating compounds comprise the previously described formulas (1) M-aan—CH═N═N, (2) M-aan—CH2—O—CO—[2-R-4-R-6-R-Phenyl], (3) M-aan—NH—CH2—CH═N—NH—CO—NH2, (4) M-N ═N—CO—CH2—aan—O—R, and combinations thereof. An example of formula (1) is benzyloxycarbonyl-Phe-Ala-diazomethylketone (PADK). As discussed in more detail later, PADK was applied to hippocampal slice cultures at a continuous concentration of 10 μM over a 20-day period. Fresh media and PADK compound were applied every two days.
Benzyloxycarbonyl-Phe-Ala-diazomethylketone (PADK) was applied to hippocampal slice cultures at a continuous concentration of 10 μM over a 20-day period. Fresh media and PADK compound were applied every two days. […] Thus the inventive lysosomal modulation promotes efficient tau turnover/processing and thereby reduces the ability of abnormally phosphorylated tau to drive non-pathogenic species off of microtubules and into the aggregated state. The non-pathogenic tau molecules would then be more readily available to stabilize microtubules and their transport mechanisms that are important for neuronal functions. Such an inverse correlation between the two forms of tau was also evident in the hippocampus of aged mice, where the change vs. age relationships determined for hyperphosphorylated and non-phosphorylated tau were of equal but opposite slopes. Thus, lysosomal modulators may intervene in the progression of certain types of neuronal atrophy, as well as in the cellular processes that contribute to synaptic loss and the severity of Alzheimer-type dementia.

[6] = test system: cathepsin D; test: Cathepsin D in brain tissue of rats given PADK in drinking water; format: in vivo, rat; conditions: adult male rats, approximately 3 to 4 mg/kg/day, seven days, vs untreated group
Description: A further aspect of the invention is a method of modulating lysosomal function in a subject comprising administering to the subject a therapeutically effective amount of at least one inventive lysosome modulating compound or a physiologically acceptable salt thereof. As discussed in more detail later, the lysosome modulating compound benzyloxycarbonyl-Phe-Ala-diazomethylketone (PADK) was added to the drinking water of a first group of 5 adult male rats in an amount corresponding to 3 to 4 mg PADK/kg rat weight/day. […] After seven days, hippocampal and neocortical tissue was isolated from the first and the second groups. The concentration of the lysosomal enzyme cathepsin D in tissue samples was assessed by immunoblot for each of the groups.
The lysosomal modulator benzyloxycarbonyl-Phe-Ala-diazomethylketone (PADK) was added to the drinking water of a first group of 5 adult male rats in an amount corresponding to approximately 3 to 4 mg PADK/ kg rat weight/day. […] After seven days, hippocampal and neocortical tissue was isolated from the first and the second groups. The concentration of cathepsin D in tissue samples was assessed by immunoblot for each of the groups.

[7] = 6 days chloroquine then 2 days media alone, vs untreated control
[8] = 2 days PADK following 6-day chloroquine treatment
[9] = PADK for two days following 6-day chloroquine period
[10] = 10 μM continuous, 20-day period

NCC(=O)NC(Cc1ccccc1)C(=O)NCC=NNC(N)=O (stereo not drawn) [(4), H-Gly-Phe-Gly-aldehyde semicarbazone]
upmodulated cathepsin types [1]: B, D

[N-]=[N+]=CC(=O)[C@H](Cc1ccccc1)NC(=O)[C@H](Cc1ccccc1)NC(=O)OCc1ccccc1 [(2), benzyloxycarbonyl-Phe-Phe-diazomethylketone] (Cbz-Phe-Phe-CHN2)
upmodulated cathepsin types [1]: B, D

CCN(CC)CCCC(C)Nc1ccnc2cc(Cl)ccc12 (centres unmarked) [chloroquine, reference compound]
GluR1 concentration during disruptor exposure ([2]; 60 μM, 6-day exposure period): decreased | cathepsin D (CD) [3, 7]: small compensatory increase | potentially pathogenic tau species of 55-69 kDa [3, 7]: enhanced levels | transport capacity ([4]; 6-day chloroquine followed by 2 days media alone, vs untreated slices): adversely affected

C[C@H](NC(=O)[C@H](Cc1ccccc1)NC(=O)OCc1ccccc1)C(=O)C=[N+]=[N-] [(1), benzyloxycarbonyl-Phe-Ala-diazomethylketone]
recovery from synaptic degeneration (GluR1) ([2]; Example 2, single 10 μM addition after 6-day chloroquine, one day): significant recovery | recovery of GluR1 level ([2]; Example 2, single 10 μM addition after 6-day chloroquine, two days): 71% | recovery of the postsynaptic marker GluR1 concentration ([2]; Example 3, 10 μM): 70% | recovery of the presynaptic marker synaptophysin concentration ([2]; Example 3, 10 μM): ~35% | 55-69 kDa tau species [3, 8]: reduction | cathepsin D [3, 8]: robust upmodulation | levels of lysosomal enzymes cathepsin B (CB), cathepsin D (CD), cathepsin S (CS) ([3]; FIG. 5 immunoblots): enhanced levels | control levels of tau isoforms ([3]; PADK addition alone (no chloroquine)): without altering | restoration of transport capability [4, 9]: significant restoration | transport failure [4, 9]: did not exhibit transport failure | upmodulated cathepsin types [1]: B, D, S | cathepsin D levels [5, 10]: stably enhanced | non-pathogenic tau isoforms [5, 10]: gradual increase | pathogenic hyperphosphorylated tau species concentration [5, 10]: gradually reduced | synaptic marker (GluR1) [5, 10]: without any reduction | concentration of the lysosomal enzyme cathepsin D ([5]; 10 μM, after 5 days of treatment): not significantly altered | lysosomal enzyme (cathepsin D) concentration in hippocampal and neocortical tissue [6]: significant increases

CC12CC3CC(C)(C1)CC(N)(C3)C2 [memantine, reference compound]
recovery of the postsynaptic marker GluR1 concentration ([2]; Example 3, 10 μM): No statistically significant recovery | recovery of the presynaptic marker synaptophysin concentration ([2]; Example 3, 10 μM): No statistically significant recovery | GluR1 level change vs baseline ([2]; Example 3, 10 μM, 2-day recovery period, FIG. 3A): small decrease
